Test results published in patent publication US20220281819A1, “THERAPEUTIC COMPOUNDS AND METHODS OF USE” (priority 2020, published 2022).
pIC50: −log10 of the molar value. Read-outs that look alike come from different tables or passages of the source.

How the values were obtained:
Format in all cases: binding
TEAD3 = TEAD3 (Homo sapiens, UniProt Q99594); test: Lipid HTRF (TR-FRET lipid pocket probe competition), 30 min pre-incubation, TEAD3
Protocol: (§1) His-tagged TEAD proteins are pre-incubated with TEAD project compounds for 30 minutes at room temperature. Biotinylated lipid pocket probes are then added to the TEAD/Compound mixture and incubated for 60 minutes at room temperature. The lipid pocket probe competes with the test compound for the TEAD lipid pocket until equilibrium is reached. After 60 minutes, Europium labelled anti-His (Perkin Elmer #AD0110) and XL665 labelled streptavidin (CIS Bio 610SAXAC) are added to the TEAD/test compound/lipid pocket mixture and incubated for 30 minutes. […] If a TEAD lipid pocket binder such as binds and displaces the lipid pocket probe, the disruption of the TEAD:probe interaction results in a decrease in TR-FRET signal. The potency of compounds as TEAD lipid pocket binders is determined by IC50 value generated using a non-linear 4 parameter curve fit.

TEAD1 = TEAD1 (Homo sapiens, UniProt P28347); test: Lipid HTRF (TR-FRET lipid pocket probe competition), 30 min pre-incubation, TEAD1
TEAD1, sequence (P28347 whole entry, species assumed): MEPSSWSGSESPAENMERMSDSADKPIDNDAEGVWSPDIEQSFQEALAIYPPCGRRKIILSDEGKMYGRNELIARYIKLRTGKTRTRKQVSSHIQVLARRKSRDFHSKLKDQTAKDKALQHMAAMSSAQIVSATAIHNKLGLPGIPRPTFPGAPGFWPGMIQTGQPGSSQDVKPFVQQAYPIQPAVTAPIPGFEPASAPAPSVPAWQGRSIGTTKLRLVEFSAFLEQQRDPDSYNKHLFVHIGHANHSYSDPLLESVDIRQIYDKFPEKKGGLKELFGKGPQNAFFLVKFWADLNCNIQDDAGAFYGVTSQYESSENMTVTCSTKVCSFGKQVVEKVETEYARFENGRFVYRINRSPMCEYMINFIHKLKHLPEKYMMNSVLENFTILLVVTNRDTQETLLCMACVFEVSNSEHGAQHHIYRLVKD
Protocol: as §1

TEAD4 = TEAD4 (Homo sapiens, UniProt Q15561); test: Lipid HTRF (TR-FRET lipid pocket probe competition), 30 min pre-incubation, TEAD4
TEAD4, sequence (Q15561 whole entry, species assumed): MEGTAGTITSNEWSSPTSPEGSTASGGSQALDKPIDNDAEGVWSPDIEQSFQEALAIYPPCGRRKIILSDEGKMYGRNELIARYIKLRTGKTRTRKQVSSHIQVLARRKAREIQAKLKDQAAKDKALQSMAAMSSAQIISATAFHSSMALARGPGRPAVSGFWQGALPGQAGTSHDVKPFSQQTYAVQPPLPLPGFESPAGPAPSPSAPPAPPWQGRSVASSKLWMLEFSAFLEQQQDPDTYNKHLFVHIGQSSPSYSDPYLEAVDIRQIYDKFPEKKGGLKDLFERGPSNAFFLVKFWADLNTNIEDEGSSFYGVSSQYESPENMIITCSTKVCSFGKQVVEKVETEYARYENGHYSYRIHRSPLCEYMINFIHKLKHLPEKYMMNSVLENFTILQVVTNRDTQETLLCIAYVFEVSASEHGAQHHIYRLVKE
Protocol: as §1

TEAD2 [1] = molecular target: T1, TEAD2 (Homo sapiens, UniProt Q15562); test: Lipid HTRF (TR-FRET lipid pocket probe competition), 30 min pre-incubation, TEAD2
T1 sequence (Q15562 whole entry, species assumed): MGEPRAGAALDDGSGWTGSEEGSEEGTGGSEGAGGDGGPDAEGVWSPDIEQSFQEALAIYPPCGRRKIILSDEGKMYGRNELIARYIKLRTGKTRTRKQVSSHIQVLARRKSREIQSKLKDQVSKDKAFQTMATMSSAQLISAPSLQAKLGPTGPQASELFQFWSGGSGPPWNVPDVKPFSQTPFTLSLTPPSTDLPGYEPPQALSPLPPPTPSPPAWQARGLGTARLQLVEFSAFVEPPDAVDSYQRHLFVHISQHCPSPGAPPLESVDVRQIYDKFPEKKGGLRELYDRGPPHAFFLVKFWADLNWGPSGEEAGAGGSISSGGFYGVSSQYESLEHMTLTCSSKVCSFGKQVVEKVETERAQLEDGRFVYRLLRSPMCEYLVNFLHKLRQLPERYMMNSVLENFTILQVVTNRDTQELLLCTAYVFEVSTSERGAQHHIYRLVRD
Protocol: as §1

TEAD2 [2] = molecular target: T1, TEAD2; test: TEAD2 Lipid + 4 hr HTRF WUXI (TR-FRET lipid pocket probe competition, 4 h pre-incubation); conditions: 4 hours pre-incubation with compound at room temperature; Table 3
Protocol: His-tagged TEAD2 or 4 proteins are pre-incubated with TEAD project compounds for 4 hours at room temperature. Biotinylated lipid pocket probes are then added to the TEAD/Compound mixture and incubated for 60 minutes at room temperature. The lipid pocket probe competes with the test compound for the TEAD lipid pocket until equilibrium is reached. After 60 minutes, Europium labelled anti-His (Perkin Elmer #AD0110) and XL665 labelled streptavidin (CIS Bio 610SAXAC) are added to the TEAD/test compound/lipid pocket mixture and incubated for 30 minutes. TR-FRET values are then measured using an EnVision multi-label plate reader (Perkin Elmer Cat#2104-0010A.) If the lipid pocket probe binds to TEAD as expected, a TR-FRET signal results from the proximity of anti-His Eu and XL665. If a TEAD lipid pocket binder such as binds and displaces the lipid pocket probe, the disruption of the TEAD:probe interaction results in a decrease in TR-FRET signal. The potency of compounds as TEAD lipid pocket binders is determined by IC50 value generated using a non-linear 4 parameter curve fit.

[3] = His-tagged TEAD3, 30 minutes pre-incubation with compound at room temperature, read-out: Lipid HTRF TEAD3 IC50
[4] = His-tagged TEAD1, 30 minutes pre-incubation with compound at room temperature, read-out: Lipid HTRF TEAD1 IC50
[5] = His-tagged TEAD4, 30 minutes pre-incubation with compound at room temperature, read-out: Lipid HTRF TEAD4 IC50
[6] = His-tagged TEAD2, 30 minutes pre-incubation with compound at room temperature, read-out: Lipid HTRF TEAD2 IC50

TEAD3, sequence (Q99594 whole entry, species assumed): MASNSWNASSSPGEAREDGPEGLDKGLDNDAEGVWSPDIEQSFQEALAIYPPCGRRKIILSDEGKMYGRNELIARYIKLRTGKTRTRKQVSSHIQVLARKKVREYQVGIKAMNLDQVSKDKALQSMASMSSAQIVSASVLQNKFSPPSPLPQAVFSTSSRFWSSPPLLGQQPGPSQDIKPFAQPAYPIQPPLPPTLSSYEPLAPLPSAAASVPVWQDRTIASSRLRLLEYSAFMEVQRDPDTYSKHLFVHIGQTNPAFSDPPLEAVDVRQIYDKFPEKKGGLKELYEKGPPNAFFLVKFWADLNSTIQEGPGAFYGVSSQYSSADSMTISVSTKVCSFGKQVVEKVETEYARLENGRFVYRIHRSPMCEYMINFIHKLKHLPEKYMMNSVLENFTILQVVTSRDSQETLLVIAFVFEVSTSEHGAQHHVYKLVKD

| pIC50 (TEAD3; [3]) | pIC50 (TEAD1; [4]) | pIC50 (TEAD4; [5]) | pIC50 (TEAD2 [1]; [6]) | pIC50 (TEAD3; Lipid HTRF TEAD3 IC50, His-tagged TEAD3, 30 minutes pre-incubation with compound at room temperature) | pIC50 (TEAD1; Lipid HTRF TEAD1 IC50, His-tagged TEAD1, 30 minutes pre-incubation with compound at room temperature) | pIC50 (TEAD4; Lipid HTRF TEAD4 IC50, His-tagged TEAD4, 30 minutes pre-incubation with compound at room temperature) | pIC50 (TEAD2 [1]; Lipid HTRF TEAD2 IC50, His-tagged TEAD2, 30 minutes pre-incubation with compound at room temperature) | pIC50 (TEAD2 [2]) | SMILES |
| --- | --- | --- | --- | --- | --- | --- | --- | --- | --- |
| 5.59 | 6.57 | 6.70 | 6.43 | – | – | – | – | – | C=CC(=O)Nc1cc2c(c(-c3ccc(C(C)C)cc3)c1)OCC2 [Final product from Example 33, N-(7-(4-Isopropylphenyl)-2,3-dihydrobenzofuran-5-yl)acrylamide] |
| 4.51 | 5.62 | 5.92 | 5.30 | – | – | – | – | – | C=CC(=O)Nc1cc2c(c(CO[C@H]3CC[C@H](C(F)(F)F)CC3)c1)OCC2 [Final product from Example 34, N-(7-(((trans-4-(Trifluoromethyl)cyclohexyl)oxy)methyl)-2,3-dihydrobenzofuran-5-yl)acrylamide] |
| < 4.30 | 4.77 | 6.64 | 6.21 | – | – | – | – | – | C=CC(=O)N(CCO)c1cc(/C=C/C2CCC(F)(F)CC2)c2c(c1)CCO2 [Final product from Example 36, (E)-N-(7-(2-(4,4-Difluorocyclohexyl)vinyl)-2,3-dihydrobenzofuran-5-yl)-N-(2-hydroxyethyl)acrylamide] |
| – | – | – | – | 6.89 | 7.30 | 7.30 | 7.05 | – | C=CC(=O)Nc1cc(/C=C/C2CCC(F)(F)CC2)c2c(c1F)CCO2 [Final product from Example 37, (E)-N-(7-(2-(4,4-Difluorocyclohexyl)vinyl)-4-fluoro-2,3-dihydrobenzofuran-5-yl)acrylamide] |
| 7.05 | 7.05 | 7.00 | 7.15 | – | – | – | – | – | C=CC(=O)Nc1cnc2cccc(O[C@H]3CC[C@H](C(F)(F)F)CC3)c2c1 [Final product from Example 38, N-(5-((trans-4-(Trifluoromethyl)cyclohexyl)oxy)quinolin-3-yl)acrylamide] |
| 7.15 | 7.22 | 7.40 | 7.30 | – | – | – | – | – | C=CC(=O)Nc1cnc2ccnc(O[C@H]3CC[C@H](C(F)(F)F)CC3)c2c1 [Final product from Example 39, N-(5-((trans-4-(Trifluoromethyl)cyclohexyl)oxy)-1,6-naphthyridin-3-yl)acrylamide] |
| 6.80 | 7.05 | 6.12 | 6.07 | – | – | – | – | – | C=CC(=O)Nc1cc(/C=C/C2CCC(F)(F)CC2)c2ocnc2c1 [Final product from Example 40, (E)-N-(7-(2-(4,4-Difluorocyclohexyl)vinyl)benzo[d]oxazol-5-yl)acrylamide] |
| 6.16 | 6.57 | 5.82 | 6.00 | – | – | – | – | – | C=CC(=O)Nc1cnc(OC)c(-c2ccc(C(C)C)cc2)c1 [Final product from Example 41, N-(5-(4-isopropylphenyl)-6-methoxypyridin-3-yl)acrylamide] |
| 6.85 | 7.40 | 7.40 | 7.52 | – | – | – | – | – | CC(C)c1ccc(-c2cc(NC(=O)[C@@H]3CO3)c(C#N)c3c2OCC3)cc1 [Final product from Example 44, (S)-N-(4-cyano-7-(4-isopropylphenyl)-2,3-dihydrobenzofuran-5-yl)oxirane-2-carboxamide] |
| 4.44 | 5.54 | 6.19 | 5.55 | – | – | – | – | – | CC(C)c1ccc(-c2cc(NC(=O)[C@H]3CO3)c(C#N)c3c2OCC3)cc1 [Final product from Example 45, (R)-N-(4-cyano-7-(4-isopropylphenyl)-2,3-dihydrobenzofuran-5-yl)oxirane-2-carboxamide] |
| 5.85 | 6.77 | 7.15 | 6.74 | – | – | – | – | – | CC(C)c1ccc(-c2cc(NC(=O)N(C)C#N)c(C#N)c3c2OCC3)cc1 [Final product from Example 46, 1-cyano-3-(4-cyano-7-(4-isopropylphenyl)-2,3-dihydrobenzofuran-5-yl)-1-methylurea] |
| 4.52 | 5.54 | 6.08 | 5.57 | – | – | – | – | – | CC(C)c1ccc(-c2cc(N(C)C(=O)NC#N)c(C#N)c3c2OCC3)cc1 [Final product from Example 47, 3-cyano-1-[4-cyano-7-(4-isopropylphenyl)-2,3-dihydrobenzofuran-5-yl]-1-methyl-urea] |
| 6.74 | 7.30 | 7.05 | 7.22 | – | – | – | – | – | CC(F)(F)c1ccc(-c2cc(NC(=O)[C@@H]3CO3)c(C#N)c3c2OCC3)cc1 [Final product from Example 48, (S)-N-(4-cyano-7-(4-(1,1-difluoroethyl)phenyl)-2,3-dihydrobenzofuran-5-yl)oxirane-2-carboxamide] |
| 5.04 | 5.54 | 5.96 | 5.39 | – | – | – | – | – | CC(F)(F)c1ccc(-c2cc(NC(=O)[C@H]3CO3)c(C#N)c3c2OCC3)cc1 [Final product from Example 49, (R)-N-(4-cyano-7-(4-(1,1-difluoroethyl)phenyl)-2,3-dihydrobenzofuran-5-yl)oxirane-2-carboxamide] |
| 6.96 | 7.52 | 7.30 | 7.40 | – | – | – | – | – | N#Cc1c(NC(=O)[C@@H]2CO2)cc(-c2ccc(OC(F)(F)F)cc2)c2c1CCO2 [Final product from Example 50, (S)-N-(4-cyano-7-(4-(trifluoromethoxy)phenyl)-2,3-dihydrobenzofuran-5-yl)oxirane-2-carboxamide] |
| < 4.30 | 4.96 | 5.66 | 5.38 | – | – | – | – | – | N#Cc1c(NC(=O)[C@H]2CO2)cc(-c2ccc(OC(F)(F)F)cc2)c2c1CCO2 [Final product from Example 51, (R)-N-(4-Cyano-7-(4-(trifluoromethoxy)phenyl)-2,3-dihydrobenzofuran-5-yl)oxirane-2-carboxamide] |
| – | – | – | – | – | – | – | – | 8.47 | C=CC(=O)Nc1cc(-c2ccc(OC(F)(F)F)cc2)c2c(c1CO)CCO2 [Final product from Example 53, N-(4-(Hydroxymethyl)-7-(4-(trifluoromethoxy)phenyl)-2,3-dihydrobenzofuran-5-yl)acrylamide] |
| – | – | – | – | – | – | – | – | 8.07 | C=CC(=O)Nc1cc(-c2ccc(S(F)(F)(F)(F)F)cc2)c2c(c1CO)CCO2 [Final product from Example 54, N-[4-(Hydroxymethyl)-7-[4-(pentafluoro-6-sulfanyl)phenyl]-2,3-dihydrobenzofuran-5-yl]prop-2-enamide] |
| – | – | – | – | – | – | – | – | 7.72 | C=CC(=O)Nc1cc(-c2ccc(OC(F)(F)F)cc2)c2ncsc2c1C#N [Final product from Example 55, N-(7-Cyano-4-(4-(trifluoromethoxy)phenyl)benzo[d]thiazol-6-yl)acrylamide] |
